In this test the target is Collagenase 3 (Homo sapiens) (UniProt P45452). Kind of test: Inhibition of human matrix metalloprotease-13 at 20 nM.
Compound `COC(=O)[C@@H](NS(=O)(=O)c1ccc(-c2ccc(F)cc2)cc1)C(C)C` had an Inhibition effect of 0.91.
As for `COC(=O)[C@@H](NS(=O)(=O)c1ccc(-c2cccc(OC)c2)cc1)C(C)C`, the figure is 0.939.
`COc1ccc(-c2ccc(S(=O)(=O)N[C@H](C(=O)O)C(C)C)cc2)cc1` registered an Inhibition effect of 0.938.
The compound `COC(=O)[C@@H](NS(=O)(=O)c1ccc(-c2ccccc2OC)cc1)C(C)C` gave an Inhibition effect of 0.942.
`COC(=O)[C@@H](NS(=O)(=O)c1ccc(-c2ccccc2F)cc1)C(C)C`: the Inhibition effect came out at 0.922.
`COC(=O)[C@@H](NS(=O)(=O)c1ccc(-c2cccc(F)c2)cc1)C(C)C` returned an Inhibition effect of 0.919.
On to `CC(C)[C@H](NS(=O)(=O)c1ccc(-c2ccc(F)cc2)cc1)C(=O)O`, for which the Inhibition effect stood at 0.918.
The value for `COC(=O)[C@@H](NS(=O)(=O)c1ccc(-c2ccc([N+](=O)[O-])cc2)cc1)C(C)C` was 0.883; that for `COC(=O)[C@@H](NS(=O)(=O)c1ccc(-c2ccc(OC)cc2)cc1)C(C)C` was 0.935; that for `CC(C)[C@H](NS(=O)(=O)c1ccc(-c2ccc([N+](=O)[O-])cc2)cc1)C(=O)O` was 0.897.
